Source: PubChem BioAssay (NCI)
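48-hour exposure; five concentrations; linearly interpolated endpoints. The concentration for 50% growth inhibition is given as GI50. TGI denotes the concentration required for complete inhibition of growth.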

What was measured:
Assay in all cases: DTP human tumour cell line panel, 48 h
MDA-MB-231 breast = test system: MDA-MB-231 breast
KM12 colon = test system: KM12 colon
CCRF-CEM leukemia = test system: CCRF-CEM leukemia
ACHN renal = test system: ACHN renal
OVCAR-8 ovarian = test system: OVCAR-8 ovarian
NCI-H522 lung = test system: NCI-H522 lung
786-0 renal = test system: 786-0 renal
RXF 393 renal = test system: RXF 393 renal
SR leukemia = test system: SR leukemia
IGROV1 ovarian = test system: IGROV1 ovarian
SK-MEL-28 melanoma = test system: SK-MEL-28 melanoma
A549 NSCLC = test system: A549 NSCLC
UACC-62 melanoma = test system: UACC-62 melanoma
BT-549 breast = test system: BT-549 breast
HT29 colon = test system: HT29 colon
SK-MEL-5 melanoma = test system: SK-MEL-5 melanoma
U251 CNS = test system: U251 CNS
SF-295 CNS = test system: SF-295 CNS
NCI-H226 lung = test system: NCI-H226 lung
NCI-H460 lung = test system: NCI-H460 lung
UO-31 renal = test system: UO-31 renal
T-47D breast = test system: T-47D breast
NCI-H23 lung = test system: NCI-H23 lung
TK-10 renal = test system: TK-10 renal
SNB-19 CNS = test system: SNB-19 CNS
SN12C renal = test system: SN12C renal
UACC-257 melanoma = test system: UACC-257 melanoma
EKVX NSCLC = test system: EKVX NSCLC
OVCAR-4 ovarian = test system: OVCAR-4 ovarian
SF-268 CNS = test system: SF-268 CNS
OVCAR-5 ovarian = test system: OVCAR-5 ovarian
MDA-MB-435 = test system: MDA-MB-435
K-562 leukemia = test system: K-562 leukemia
HL-60(TB) leukemia = test system: HL-60(TB) leukemia
HCC-2998 colon = test system: HCC-2998 colon
A498 renal = test system: A498 renal
COLO 205 colon = test system: COLO 205 colon
PC-3 prostate = test system: PC-3 prostate
MCF7 breast = test system: MCF7 breast
HOP-62 NSCLC = test system: HOP-62 NSCLC
M14 melanoma = test system: M14 melanoma
NCI/ADR-RES ovarian = test system: NCI/ADR-RES ovarian
MALME-3M melanoma = test system: MALME-3M melanoma
HCT-116 colon = test system: HCT-116 colon
HCT-15 colon = test system: HCT-15 colon
RPMI-8226 leukemia = test system: RPMI-8226 leukemia
SW-620 colon = test system: SW-620 colon
CAKI-1 renal = test system: CAKI-1 renal
SNB-75 CNS = test system: SNB-75 CNS
SK-OV-3 ovarian = test system: SK-OV-3 ovarian
MOLT-4 leukemia = test system: MOLT-4 leukemia
OVCAR-3 ovarian = test system: OVCAR-3 ovarian
HS 578T breast = test system: HS 578T breast
DU-145 prostate = test system: DU-145 prostate
SF-539 CNS = test system: SF-539 CNS
LOX IMVI melanoma = test system: LOX IMVI melanoma
HOP-92 NSCLC = test system: HOP-92 NSCLC
SK-MEL-2 melanoma = test system: SK-MEL-2 melanoma

C#Cc1nc(C2=C(C)C(OC(C)=O)/C(=N/OC(C)=O)C2)cs1 (stereo not given)
GI50 (MDA-MB-231 breast): 4.62 µM | TGI (MDA-MB-231 breast): > 20.6 µM | GI50 (KM12 colon): 47.4 µM | TGI (KM12 colon): > 100 µM | GI50 (CCRF-CEM leukemia): 0.188 µM | TGI (CCRF-CEM leukemia): 0.478 µM | GI50 (ACHN renal): 0.831 µM | TGI (ACHN renal): 7.17 µM | GI50 (OVCAR-8 ovarian): 9.99 µM | TGI (OVCAR-8 ovarian): 41.6 µM | GI50 (NCI-H522 lung): 0.429 µM | TGI (NCI-H522 lung): 0.937 µM | GI50 (786-0 renal): 1.83 µM | TGI (786-0 renal): 3.33 µM | GI50 (RXF 393 renal): 2.62 µM | TGI (RXF 393 renal): 6.03 µM | GI50 (SR leukemia): 0.228 µM | TGI (SR leukemia): 0.649 µM | GI50 (IGROV1 ovarian): 0.745 µM | TGI (IGROV1 ovarian): 2.09 µM | GI50 (SK-MEL-28 melanoma): 17.1 µM | TGI (SK-MEL-28 melanoma): 39 µM | GI50 (A549 NSCLC): 5.39 µM | TGI (A549 NSCLC): > 100 µM | GI50 (UACC-62 melanoma): 13.7 µM | TGI (UACC-62 melanoma): 29.4 µM | GI50 (BT-549 breast): 5.65 µM | TGI (BT-549 breast): 13 µM | GI50 (HT29 colon): 2.27 µM | TGI (HT29 colon): 6.67 µM | GI50 (SK-MEL-5 melanoma): 19.5 µM | TGI (SK-MEL-5 melanoma): 56.1 µM | GI50 (U251 CNS): 4.58 µM | TGI (U251 CNS): > 26.9 µM | GI50 (SF-295 CNS): 1.84 µM | TGI (SF-295 CNS): 3.67 µM | GI50 (NCI-H226 lung): > 100 µM | TGI (NCI-H226 lung): > 100 µM | GI50 (NCI-H460 lung): > 28.5 µM | TGI (NCI-H460 lung): > 100 µM | GI50 (UO-31 renal): 0.164 µM | TGI (UO-31 renal): 0.299 µM | GI50 (T-47D breast): 7.49 µM | TGI (T-47D breast): 30.4 µM | GI50 (NCI-H23 lung): 1.26 µM | TGI (NCI-H23 lung): 4.86 µM | GI50 (TK-10 renal): 28.3 µM | TGI (TK-10 renal): 56.9 µM | GI50 (SNB-19 CNS): > 59.5 µM | TGI (SNB-19 CNS): > 100 µM | GI50 (SN12C renal): 10.1 µM | TGI (SN12C renal): 25.4 µM | GI50 (UACC-257 melanoma): 17.6 µM | TGI (UACC-257 melanoma): 62.8 µM | GI50 (EKVX NSCLC): 12 µM | TGI (EKVX NSCLC): > 61.4 µM | GI50 (OVCAR-4 ovarian): 6.65 µM | TGI (OVCAR-4 ovarian): 22.1 µM | GI50 (SF-268 CNS): 9.78 µM | TGI (SF-268 CNS): 45.7 µM | GI50 (OVCAR-5 ovarian): 7.36 µM | TGI (OVCAR-5 ovarian): > 41.9 µM | GI50 (MDA-MB-435): 34.5 µM | TGI (MDA-MB-435): > 77.3 µM | GI50 (K-562 leukemia): 11.8 µM | TGI (K-562 leukemia): 53.5 µM | GI50 (HL-60(TB) leukemia): 0.587 µM | TGI (HL-60(TB) leukemia): 1.32 µM | GI50 (HCC-2998 colon): 23.2 µM | TGI (HCC-2998 colon): > 60.9 µM | GI50 (A498 renal): 27.1 µM | TGI (A498 renal): 50.4 µM | GI50 (COLO 205 colon): 20.1 µM | TGI (COLO 205 colon): > 55.7 µM | GI50 (PC-3 prostate): 4.66 µM | TGI (PC-3 prostate): > 42.4 µM | GI50 (MCF7 breast): 6.75 µM | TGI (MCF7 breast): > 76.6 µM | GI50 (HOP-62 NSCLC): 9.24 µM | TGI (HOP-62 NSCLC): > 23.6 µM | GI50 (M14 melanoma): 21.3 µM | TGI (M14 melanoma): > 80 µM | GI50 (NCI/ADR-RES ovarian): 4.98 µM | TGI (NCI/ADR-RES ovarian): > 21.3 µM | GI50 (MALME-3M melanoma): 1.81 µM | TGI (MALME-3M melanoma): 4.86 µM | GI50 (HCT-116 colon): 13.5 µM | TGI (HCT-116 colon): 30.4 µM | GI50 (HCT-15 colon): 6.21 µM | TGI (HCT-15 colon): 23.8 µM | GI50 (RPMI-8226 leukemia): 0.312 µM | TGI (RPMI-8226 leukemia): 1.17 µM | GI50 (SW-620 colon): 13.3 µM | TGI (SW-620 colon): 30.4 µM | GI50 (CAKI-1 renal): 4.66 µM | TGI (CAKI-1 renal): 11.7 µM | TGI (SNB-75 CNS): > 24.2 µM | GI50 (SK-OV-3 ovarian): 6.16 µM | TGI (SK-OV-3 ovarian): 20.6 µM | GI50 (MOLT-4 leukemia): 1.85 µM | TGI (MOLT-4 leukemia): 4.69 µM | GI50 (OVCAR-3 ovarian): 2.7 µM | TGI (OVCAR-3 ovarian): 7.6 µM | GI50 (HS 578T breast): 8.7 µM | TGI (HS 578T breast): > 25.9 µM | GI50 (DU-145 prostate): 11.5 µM | TGI (DU-145 prostate): > 70.3 µM | GI50 (SF-539 CNS): 0.687 µM | TGI (SF-539 CNS): 1.87 µM | GI50 (LOX IMVI melanoma): 0.0198 µM | TGI (LOX IMVI melanoma): 0.0453 µM | GI50 (HOP-92 NSCLC): 1.73 µM | TGI (HOP-92 NSCLC): 3.24 µM | GI50 (SK-MEL-2 melanoma): 27.6 µM | TGI (SK-MEL-2 melanoma): > 69.7 µM

COc1cc(/C=N/NC(=O)c2cn(C3CC3)c3c(OC)c(N4CC5CCCNC5C4)c(F)cc3c2=O)ccc1O (stereo not given)
GI50 (MDA-MB-231 breast): 1.69 µM | TGI (MDA-MB-231 breast): 3.22 µM | GI50 (KM12 colon): 1.67 µM | TGI (KM12 colon): 3.11 µM | GI50 (ACHN renal): 1.7 µM | TGI (ACHN renal): 3.09 µM | GI50 (NCI-H522 lung): 1.79 µM | TGI (NCI-H522 lung): 3.4 µM | GI50 (UACC-62 melanoma): 1.72 µM | TGI (UACC-62 melanoma): 3.28 µM | GI50 (HT29 colon): 1.83 µM | TGI (HT29 colon): 3.38 µM | GI50 (SK-MEL-5 melanoma): 17.6 µM | TGI (SK-MEL-5 melanoma): 41.3 µM | GI50 (NCI-H460 lung): 1.87 µM | TGI (NCI-H460 lung): 3.5 µM | GI50 (UO-31 renal): 1.53 µM | TGI (UO-31 renal): 2.93 µM | GI50 (TK-10 renal): 1.68 µM | TGI (TK-10 renal): 3.1 µM | GI50 (SN12C renal): 1.83 µM | TGI (SN12C renal): 3.46 µM | GI50 (OVCAR-5 ovarian): 1.65 µM | TGI (OVCAR-5 ovarian): 3.05 µM | GI50 (A498 renal): 1.76 µM | TGI (A498 renal): 3.18 µM | GI50 (PC-3 prostate): 1.74 µM | TGI (PC-3 prostate): 3.28 µM | GI50 (NCI/ADR-RES ovarian): 58.8 µM | TGI (NCI/ADR-RES ovarian): > 100 µM | GI50 (MALME-3M melanoma): 1.69 µM | TGI (MALME-3M melanoma): 3.21 µM | GI50 (RPMI-8226 leukemia): 1.88 µM | TGI (RPMI-8226 leukemia): 4.38 µM | GI50 (SW-620 colon): 1.73 µM | TGI (SW-620 colon): 3.27 µM | GI50 (CAKI-1 renal): 1.67 µM | TGI (CAKI-1 renal): 3.12 µM | GI50 (SNB-75 CNS): 1.43 µM | TGI (SNB-75 CNS): 2.81 µM | GI50 (MOLT-4 leukemia): 2.3 µM | TGI (MOLT-4 leukemia): 5.33 µM | GI50 (DU-145 prostate): 1.86 µM | TGI (DU-145 prostate): 3.31 µM | GI50 (SF-539 CNS): 1.73 µM | TGI (SF-539 CNS): 3.21 µM | GI50 (HOP-92 NSCLC): 1.66 µM | TGI (HOP-92 NSCLC): 3.16 µM | GI50 (SK-MEL-2 melanoma): 1.85 µM | TGI (SK-MEL-2 melanoma): 3.68 µM
